Values after ≈ are worked out from the molar mass of the structure shown.
Legend:
[1] = MTT cytotoxicity assay, HepG2; assay type: cell-based, human; conditions: human, HepG2 cells (hepatocellular carcinoma), 48 h
Experimental: (§1) The assessment of cytotoxicity for the methanolic extract and isolated flavonoids was performed under controlled and sterile conditions within a Class II A2 Laminar flow biosafety cabinet. The carcinoma cell lines used in this study was obtained from Nawah Scientific Inc. (Cairo, Egypt). The cells were cultured in Dulbecco’s Modified Eagle’s Medium, enriched with 10% heat-inactivated fetal bovine serum, 100 U/ml penicillin, and 100 μg/ml streptomycin sulfate, maintained at […] in humidified incubators with 5% CO2. Upon reaching approximately 80% confluence, the cells were subcultured using a trypsin–EDTA solution. Harvesting occurred during the logarithmic growth phase. The methanolic extract and isolated flavonoids were dissolved in DMSO and stored at − 20 °C. For each experimental trial, the stock solutions were mixed with the culture medium to obtain the required final concentrations.
(§2) The effectiveness of the extract was compared to that of the reference drug, Doxorubicin. The percentage of cell viability was calculated by taking the ratio of the absorbance of the plant extract to that of the control, multiplied by 100. Furthermore, the IC50 value of the plant extract was determined using Sigma Plot software version 11 (Spw.exe) (https://sigmaplot.software.informer.com/11.0/).

[2] = test system: hepatocellular carcinoma (HepG2); assay: MTT cytotoxicity assay, HepG2; assay type: cell-based, human; conditions: Homo sapiens, HepG2, 48 h, read-out: IC50
Experimental: as §1, §2

[3] = MTT cytotoxicity assay, HTC-116; assay type: cell-based, human; conditions: human, HTC-116 cells (human colorectal carcinoma), 48 h
Experimental: as §1, §2

[4] = test system: human colorectal carcinoma cells (HTC-116); assay: MTT cytotoxicity assay, HTC-116; assay type: cell-based; conditions: Homo sapiens, HTC-116, 48 h, read-out: IC50
Experimental: as §1, §2

[5] = MTT cytotoxicity assay, Caco-2; assay type: cell-based, human; conditions: human, Caco-2 cells (human colonic epithelial cells), 48 h
Experimental: as §1, §2

[6] = test system: human colonic epithelial cells (Caco-2); assay: MTT cytotoxicity assay, Caco-2; assay type: cell-based; conditions: Homo sapiens, Caco-2, 48 h, read-out: IC50
Experimental: as §1, §2

`COc1cccc2c1C(=O)c1c(O)c3c(c(O)c1C2=O)C[C@@](O)(C(=O)CO)C[C@@H]3O[C@H]1C[C@H](N)[C@H](O)[C@H](C)O1` [Doxorubicin, reference compound] gave a cytotoxicity at 48 h, 6.25 µg/ml ([1]; HepG2, 6.25 ug/ml) of 31.8%, a viability at 48 h, 6.25 µg/ml ([1]; HepG2, 6.25 ug/ml, read-out: % Cell viability) of 68.2% and a cytotoxicity at 48 h, 12.5 µg/ml ([1]; HepG2, 12.5 ug/ml) of 37.7%. For the same compound, the viability at 48 h, 12.5 µg/ml ([1]; HepG2, 12.5 ug/ml, read-out: % Cell viability) was 62.3%, the cytotoxicity at 48 h, 25 µg/ml ([1]; HepG2, 25 ug/ml) was 60.1% and the viability at 48 h, 25 µg/ml ([1]; HepG2, 25 ug/ml, read-out: % Cell viability) was 39.9%. For the same compound, the cytotoxicity at 48 h, 50 µg/ml ([1]; HepG2, 50 ug/ml) was 76%, the viability at 48 h, 50 µg/ml ([1]; HepG2, 50 ug/ml, read-out: % Cell viability) was 24% and the cytotoxicity at 48 h, 100 µg/ml ([1]; HepG2, 100 ug/ml) was 92%. The viability at 48 h, 100 µg/ml ([1]; HepG2, 100 ug/ml, read-out: % Cell viability) was 7.95%, the IC50 [2] was 23.6 µg/mL (≈ 43.3 µM) and the cytotoxicity at 48 h, 6.25 µg/ml ([3]; HTC-116, 6.25 ug/ml) was 31%. For the same compound, the viability at 48 h, 6.25 µg/ml ([3]; HTC-116, 6.25 ug/ml, read-out: % Cell viability) was 69%, the cytotoxicity at 48 h, 12.5 µg/ml ([3]; HTC-116, 12.5 ug/ml) was 43.1% and the viability at 48 h, 12.5 µg/ml ([3]; HTC-116, 12.5 ug/ml, read-out: % Cell viability) was 56.9%. The cytotoxicity at 48 h, 25 µg/ml ([3]; HTC-116, 25 ug/ml) was 53.8%, the viability at 48 h, 25 µg/ml ([3]; HTC-116, 25 ug/ml, read-out: % Cell viability) was 46.2% and the cytotoxicity at 48 h, 50 µg/ml ([3]; HTC-116, 50 ug/ml) was 70%. It also gave a viability at 48 h, 50 µg/ml ([3]; HTC-116, 50 ug/ml, read-out: % Cell viability) of 30%, a cytotoxicity at 48 h, 100 µg/ml ([3]; HTC-116, 100 ug/ml) of 91.2% and a viability at 48 h, 100 µg/ml ([3]; HTC-116, 100 ug/ml, read-out: % Cell viability) of 8.77%. The IC50 [4] was 25.7 µg/mL (≈ 47.3 µM), the cytotoxicity at 48 h, 6.25 µg/ml ([5]; Caco-2, 6.25 ug/ml) was 28.1% and the viability at 48 h, 6.25 µg/ml ([5]; Caco-2, 6.25 ug/ml, read-out: % Cell viability) was 71.9%. For the same compound, the cytotoxicity at 48 h, 12.5 µg/ml ([5]; Caco-2, 12.5 ug/ml) was 41.6%, the viability at 48 h, 12.5 µg/ml ([5]; Caco-2, 12.5 ug/ml, read-out: % Cell viability) was 58.4% and the cytotoxicity at 48 h, 25 µg/ml ([5]; Caco-2, 25 ug/ml) was 53.9%. It also gave a viability at 48 h, 25 µg/ml ([5]; Caco-2, 25 ug/ml, read-out: % Cell viability) of 46.1%, a cytotoxicity at 48 h, 50 µg/ml ([5]; Caco-2, 50 ug/ml) of 71.2% and a viability at 48 h, 50 µg/ml ([5]; Caco-2, 50 ug/ml, read-out: % Cell viability) of 28.8%. It also gave a cytotoxicity at 48 h, 100 µg/ml ([5]; Caco-2, 100 ug/ml) of 92.1%, a viability at 48 h, 100 µg/ml ([5]; Caco-2, 100 ug/ml, read-out: % Cell viability) of 7.87% and an IC50 [6] of 27.1 µg/mL (≈ 49.9 µM).
